The results in this text go back to paper PMC6164518 (Marine Drugs, 2018).

As a reminder, the IC50 is the concentration at which inhibition is half-maximal.

In one data set the target is T1, Electric eel AChE (Electrophorus electricus, UniProt O42275).
T1 construct: purchased Sigma-Aldrich (Steinheim, Germany)
In words: biochemical. The conditions noted are these: AChE from electric eel; mean ± SD from three separate experiments; read-out: IC50 EeAChE. Here is the method: (§1) The AChE and BChE inhibitory activities of compounds were determined by using a slightly modified Ellman’s method. Electric eel AChE, equine serum BChE, 5,5′-dithiobis(2-nitrobenzoic acid) (DTNB), phosphate buffer solution (PBS, pH 8.0), acetylthiocholine (ATC) iodide, and butyrylthiocholine (BUC) iodide were purchased from Sigma-Aldrich (Steinheim, Germany). […] Enzyme solutions were prepared at 2.0 U/mL in 2-mL aliquots. The assay medium consisted of 10 μL of enzyme, 40 μL of PBS, 20 μL of 0.01 M DTNB, and 10 μL of tested compound. Assayed solutions of tested compounds were pre-incubated with corresponding ChE for 5 min. The reaction was initiated by the addition of 20 μL of 0.01 M substrate (ATC or BUC). The activity was determined by measuring the increase in absorbance at 410 nm at 37 °C in 2-min intervals using Tecan Spark multimode microplate reader (Mannedorf, Switzerland). The percentage of inhibition (I) was calculated from the measured data as follows: I = (Ac − Ai)/Ac × 100%, where Ai and Ac represent the change in the absorbance in the presence of an inhibitor and without an inhibitor, respectively.

The next data set addresses T2, equine serum BChE (Equus caballus, UniProt P81908).
T2 construct: purchased Sigma-Aldrich (Steinheim, Germany); host or cells: equine serum
In words: biochemical. The conditions noted are these: BChE from equine serum; mean ± SD from three separate experiments; read-out: IC50 eqBChE. Here is the method: as §1

The next data set deals with T3, Aβ1–42 (Homo sapiens, UniProt P05067).
T3 construct: pre-treated Aβ1–42 (GL Biochem Ltd., Shanghai, China) was dissolved in DMSO; purchased GL Biochem Ltd., Shanghai, China
In words: Inhibition of self-induced Aβ1–42 aggregation (ThT fluorescence). The class given is biochemical. The note with it: Aβ1–42 2.5 µM, compound 10 µM, mean ± SD of three experiments. The method, then:
In order to investigate the inhibition of compounds on Aβ1–42 self-aggregation, a ThT-based fluorometric assay was performed. 1,1,1,3,3,3-hexafluoro-2-propanol (HFIP) pre-treated Aβ1–42 (GL Biochem Ltd., Shanghai, China) was dissolved in DMSO to make a 200 µM stock solution. The stock solution was centrifuged at the speed of 13,500 rpm for 10 min. The above supernatant was used for experiments. The tested compounds were dissolved in DMSO at concentrations of 0.8 mM. A screening assay for the tested compounds to inhibit A aggregation was performed by measuring ThT fluorescence emission. Compounds (2 µL) and 2 µL of 200 µM Aβ1–42 were added into 76 µL of phosphate-buffered saline (PBS at pH 7.4) in a 96-well plate. After incubation for 24 h at room temperature, 80 µL of 5 µM of ThT solution (in 50 mM of glycine-NaOH at pH 8.5) was added to the reaction solution. Fluorescence emission was measured at 490 nm with an excitation wavelength of 450 nm on a Tecan Spark multimode microplate reader. […] The fluorescence intensities were compared, and the % inhibition was calculated by the following equation: 100 − [(Fi − Fb)/(Fo − Fb) × 100], where Fi, Fo and Fb are the fluorescence intensities obtained for Aβ aggregation in the presence of inhibitors Aβ1–42 and ThT; in the presence of Aβ1–42 and THT but no inhibitors; and the blanks containing ThT only.

The next data set can be described thus: in vitro. The note with it: human. Here is the method:
Thus, to verify the hepatotoxicity of 1 and 12j, a 3-(4,5-dimethylthiazol-2-yl)-2,5-diphenyltetrazolium bromide (MTT) assay on the human hepatoma cell line (HepG2) was carried out.
The cytotoxicity of selected compounds was evaluated on HepG2 cells. Cells were inoculated into 96-well plates. After incubation for 24 h, the cells were treated with different concentrations of tested compounds for 24 h, and then were incubated with 10 μL of 3-(4,5-dimethylthiazol-2-yl)-2,5-diphenyltetrazolium bromide (MTT) at 37 °C for 2 h. The formazan dye product was measured by the absorbance at 490 nm on a Tecan Spark multimode microplate reader.

Each structure is given as a SMILES string.

T2 sequence (P81908 whole entry): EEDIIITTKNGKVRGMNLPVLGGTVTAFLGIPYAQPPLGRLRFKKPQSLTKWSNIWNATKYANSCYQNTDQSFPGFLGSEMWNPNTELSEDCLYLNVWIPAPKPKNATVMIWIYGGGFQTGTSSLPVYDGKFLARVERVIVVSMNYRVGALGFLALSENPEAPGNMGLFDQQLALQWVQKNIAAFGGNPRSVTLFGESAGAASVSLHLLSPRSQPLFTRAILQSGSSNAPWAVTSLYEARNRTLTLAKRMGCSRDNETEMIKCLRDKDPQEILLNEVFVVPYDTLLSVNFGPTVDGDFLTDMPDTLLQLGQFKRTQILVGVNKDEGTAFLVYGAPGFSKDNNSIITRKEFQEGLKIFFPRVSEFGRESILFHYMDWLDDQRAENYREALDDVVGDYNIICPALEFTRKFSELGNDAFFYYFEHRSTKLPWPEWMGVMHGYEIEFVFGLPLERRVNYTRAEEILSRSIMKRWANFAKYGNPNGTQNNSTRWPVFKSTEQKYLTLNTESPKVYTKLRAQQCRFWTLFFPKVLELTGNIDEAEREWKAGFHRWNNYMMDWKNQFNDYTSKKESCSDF
T1 sequence (O42275 24-633): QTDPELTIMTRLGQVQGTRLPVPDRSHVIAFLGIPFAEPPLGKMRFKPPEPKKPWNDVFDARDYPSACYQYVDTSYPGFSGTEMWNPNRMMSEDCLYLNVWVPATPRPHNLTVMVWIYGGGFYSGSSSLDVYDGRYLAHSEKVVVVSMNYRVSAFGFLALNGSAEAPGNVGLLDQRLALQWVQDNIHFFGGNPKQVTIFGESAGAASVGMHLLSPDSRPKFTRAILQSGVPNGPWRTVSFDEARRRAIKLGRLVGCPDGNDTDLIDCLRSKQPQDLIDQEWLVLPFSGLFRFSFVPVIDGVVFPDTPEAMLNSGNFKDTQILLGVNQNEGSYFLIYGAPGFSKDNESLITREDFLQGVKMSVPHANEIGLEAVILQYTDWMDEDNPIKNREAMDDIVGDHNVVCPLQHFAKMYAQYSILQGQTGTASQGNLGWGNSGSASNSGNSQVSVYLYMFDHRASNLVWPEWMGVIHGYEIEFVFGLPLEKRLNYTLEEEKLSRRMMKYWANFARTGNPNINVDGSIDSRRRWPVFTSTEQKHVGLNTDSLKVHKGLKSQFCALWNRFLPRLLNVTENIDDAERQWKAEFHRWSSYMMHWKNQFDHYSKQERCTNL
T3 sequence (P05067 672-713 limits assumed): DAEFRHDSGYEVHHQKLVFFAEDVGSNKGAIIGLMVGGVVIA

For `COc1c(Br)cc(CC(=O)NCCNc2c3c(nc4ccccc24)CCCC3)cc1Br` [Compound 10a, 2-(3,5-Dibromo-4-methoxyphenyl)-N-(2-((1,2,3,4-tetrahydroacridin-9-yl)amino)ethyl)acetamide], the results for the concentration for half-maximal inhibition (IC50) at Electric eel AChE and on equine serum BChE were 880 ± 74 nM and 230 ± 10 nM, respectively.
The corresponding values for `COc1c(Br)cc(CC(=O)NCCCNc2c3c(nc4ccccc24)CCCC3)cc1Br` [Compound 10b, 2-(3,5-Dibromo-4-methoxyphenyl)-N-(3-((1,2,3,4-tetrahydroacridin-9-yl)amino)propyl)acetamide] are 771 ± 27 nM and 233 ± 13 nM.
The like results for `COc1c(Br)cc(CC(=O)NCCCCNc2c3c(nc4ccccc24)CCCC3)cc1Br` [Compound 10c, 2-(3,5-Dibromo-4-methoxyphenyl)-N-(4-((1,2,3,4-tetrahydroacridin-9-yl)amino)butyl)acetamide] were, in that order, 1050 ± 161 nM and 195 ± 11 nM.
For the compound `COc1c(Br)cc(CC(=O)NCCCCCNc2c3c(nc4ccccc24)CCCC3)cc1Br` [Compound 10d, 2-(3,5-Dibromo-4-methoxyphenyl)-N-(5-((1,2,3,4-tetrahydroacridin-9-yl)amino)pentyl)acetamide], the IC50 on Electric eel AChE turned out to be 764 ± 16 nM; at equine serum BChE, 100 ± 14 nM.
The like results for `COc1c(Br)cc(CC(=O)NCCCCCCNc2c3c(nc4ccccc24)CCCC3)cc1Br` [Compound 10e, 2-(3,5-Dibromo-4-methoxyphenyl)-N-(6-((1,2,3,4-tetrahydroacridin-9-yl)amino)hexyl)acetamide] were, in that order, 686 ± 45 nM and 54 ± 6 nM.
The corresponding values for `COc1c(Br)cc(CC(=O)NCCCCCCCNc2c3c(nc4ccccc24)CCCC3)cc1Br` [Compound 10f, 2-(3,5-Dibromo-4-methoxyphenyl)-N-(7-((1,2,3,4-tetrahydroacridin-9-yl)amino)heptyl)acetamide] are 314 ± 10 nM and 53 ± 7 nM.
The corresponding values for `COc1c(Br)cc(CC(=O)NCCCCCCCCNc2c3c(nc4ccccc24)CCCC3)cc1Br` [Compound 10g, 2-(3,5-Dibromo-4-methoxyphenyl)-N-(8-((1,2,3,4-tetrahydroacridin-9-yl)amino)octyl)acetamide] are 427 ± 16 nM and 325 ± 4 nM.
As for `COc1c(Br)cc(CC(=O)NCCCCCCCCCCNc2c3c(nc4ccccc24)CCCC3)cc1Br` [Compound 10h, 2-(3,5-Dibromo-4-methoxyphenyl)-N-(10-((1,2,3,4-tetrahydroacridin-9-yl)amino)decyl)acetamide], the figures for the IC50 on Electric eel AChE and on equine serum BChE were 638 ± 26 nM and 516 ± 37 nM, respectively.
The corresponding values for `COc1ccc(CC(=O)NCCCCCCCNc2c3c(nc4ccccc24)CCCC3)c(Br)c1` [Compound 12a, 2-(2-Bromo-4-methoxyphenyl)-N-(7-((1,2,3,4-tetrahydroacridin-9-yl)amino)heptyl)acetamide] are 324 ± 33 nM and 140 ± 4 nM.
The like results for `COc1ccc(CC(=O)NCCCCCCCNc2c3c(nc4ccccc24)CCCC3)cc1` [Compound 12b, 2-(4-Methoxyphenyl)-N-(7-((1,2,3,4-tetrahydroacridin-9-yl)amino)heptyl)acetamide] were, in that order, 750 ± 54 nM and 694 ± 3 nM.
The corresponding values for `COc1ccc(CC(=O)NCCCCCCCNc2c3c(nc4ccccc24)CCCC3)cc1Br` [Compound 12c, 2-(3-Bromo-4-methoxyphenyl)-N-(7-((1,2,3,4-tetrahydroacridin-9-yl)amino)heptyl)acetamide] are 607 ± 45 nM and 152 ± 6 nM.
Consider `O=C(Cc1ccccc1Br)NCCCCCCCNc1c2c(nc3ccccc13)CCCC2` [Compound 12d, 2-(2-Bromophenyl)-N-(7-((1,2,3,4-tetrahydroacridin-9-yl)amino)heptyl)acetamide], for which the 50% inhibitory concentration (IC50) worked out at 304 ± 4 nM at Electric eel AChE and 91 ± 17 nM at equine serum BChE.
The corresponding values for `O=C(Cc1cccc(Br)c1)NCCCCCCCNc1c2c(nc3ccccc13)CCCC2` [Compound 12e, 2-(3-Bromophenyl)-N-(7-((1,2,3,4-tetrahydroacridin-9-yl)amino)heptyl)acetamide] are 724 ± 3 nM and 149 ± 21 nM.
The like results for `O=C(Cc1ccc(Br)cc1)NCCCCCCCNc1c2c(nc3ccccc13)CCCC2` [Compound 12f, 2-(4-Bromophenyl)-N-(7-((1,2,3,4-tetrahydroacridin-9-yl)amino)heptyl)acetamide] were, in that order, 597 ± 28 nM and 214 ± 4 nM.
On to `O=C(Cc1cc(Br)ccc1Br)NCCCCCCCNc1c2c(nc3ccccc13)CCCC2` [Compound 12g, 2-(2,5-Dibromophenyl)-N-(7-((1,2,3,4-tetrahydroacridin-9-yl)amino)heptyl)acetamide], for which the IC50 at Electric eel AChE worked out at 696 ± 52 nM; on equine serum BChE, 62 ± 6 nM.
On to `O=C(Cc1cc(Br)cc(Br)c1)NCCCCCCCNc1c2c(nc3ccccc13)CCCC2` [Compound 12h, 2-(3,5-Dibromophenyl)-N-(7-((1,2,3,4-tetrahydroacridin-9-yl)amino)heptyl)acetamide], for which the IC50 on Electric eel AChE stood at 729 ± 21 nM; at equine serum BChE, 204 ± 11 nM.
The like results for `O=C(Cc1ccc(F)c(Br)c1)NCCCCCCCNc1c2c(nc3ccccc13)CCCC2` [Compound 12i, 2-(3-Bromo-4-fluorophenyl)-N-(7-((1,2,3,4-tetrahydroacridin-9-yl)amino)heptyl)acetamide] were, in that order, 748 ± 17 nM and 49 ± 4 nM.
The corresponding values for `O=C(Cc1cc(Cl)ccc1Br)NCCCCCCCNc1c2c(nc3ccccc13)CCCC2` [Compound 12k, 2-(2-Bromo-5-chlorophenyl)-N-(7-((1,2,3,4-tetrahydroacridin-9-yl)amino)heptyl)acetamide] are 383 ± 54 nM and 104 ± 1 nM.
For the compound `O=C(Cc1ccccc1)NCCCCCCCNc1c2c(nc3ccccc13)CCCC2` [Compound 12l, 2-Phenyl-N-(7-((1,2,3,4-tetrahydroacridin-9-yl)amino)heptyl)acetamide], the IC50 at Electric eel AChE worked out at 760 ± 92 nM; at equine serum BChE, 680 ± 54 nM.
For the compound `COc1ccc2c3c1O[C@H]1C[C@@H](O)C=C[C@@]31CCN(C)C2` [Galantamine, reference compound], the results for the “Inhibition of Aβ Aggregation (%) Self-Induced” value at Aβ1–42 and on Aβ1–42 (listed as galantamine) were 1.25 ± 0.46% and “no significant inhibition”, respectively.
On to `Nc1c2c(nc3ccccc13)CCCC2` [Tacrine, reference compound], for which, in “in vitro”, the IC50 at 24 h was 38900 ± 530 nM.
